This is an account of results in PubChem BioAssay (NCI).

Broadly, the GI50 is the concentration that inhibits growth by half. The term TGI denotes the concentration at which net growth stops.

Values joined by “and” are separate entries in the source; they are usually repeats but may differ in a detail not shown here. Equal entries are not always repeated.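 Tested at 5 concentrations; 48 h exposure; 96-well plates; endpoints linearly interpolated, else capped at highest concentration. GI50 is the concentration that inhibits growth by half. TGI: concentration producing complete growth inhibition.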

Test systems include SK-MEL-2 melanoma; PC-3 prostate; NCI/ADR-RES ovarian; OVCAR-3 ovarian; HCT-116 colon; ACHN renal; A498 renal.
Holding throughout (experiment): DTP human tumour cell line panel, 48 h

Take `COc1cc2c(cc1C)NC(=O)/C2=C/c1ccnc2ccccc12`: the GI50 in the experiment with SK-MEL-2 melanoma is 26.3 µM; in the experiment on PC-3 prostate, 7.07 µM; in the experiment on NCI/ADR-RES ovarian, 15.6 µM; in the experiment with OVCAR-3 ovarian it was 18.4 µM; in the experiment on HCT-116 colon, 24.4 µM; in the experiment on ACHN renal, 10.3 µM. Further, the TGI with SK-MEL-2 melanoma is over 50 µM; with PC-3 prostate it was over 50 µM; with NCI/ADR-RES ovarian it was 41.2 µM; in the experiment on OVCAR-3 ovarian, over 50 µM; with HCT-116 colon, over 50 µM; in the experiment on ACHN renal, 25.6 µM.
As for `COc1cc2c(cc1OCCNC(=O)/C=C1\C[C@H]3C=Nc4cc(OCc5ccccc5)c(OC)cc4C(=O)N3C1)N=C[C@@H]1CCCN1C2=O`, the GI50 in the experiment with SK-MEL-2 melanoma was 1.58 µM; with PC-3 prostate, 3.53 µM; in the experiment with NCI/ADR-RES ovarian it was over 100 µM; in the experiment on OVCAR-3 ovarian, 2.19 µM; in the experiment on HCT-116 colon it was 2.93 µM; with ACHN renal, 25.8 µM. In addition, the TGI in the experiment with SK-MEL-2 melanoma is 3.56 µM; in the experiment with PC-3 prostate, 33.7 µM; with NCI/ADR-RES ovarian, over 100 µM; in the experiment with OVCAR-3 ovarian, 5.49 µM; with HCT-116 colon it was 11.9 µM; with ACHN renal, 71.5 µM.
Turning to `O=c1c(Cc2ccc3c(c2)OCO3)nnc2sc(-c3cc(F)c(Cl)cc3Cl)nn12`, the GI50 with PC-3 prostate is 35.4 µM; with NCI/ADR-RES ovarian it was 63.7 µM; with OVCAR-3 ovarian it was 38 µM; with HCT-116 colon, 23.5 µM; in the experiment with ACHN renal, 53.8 µM. Also, the TGI in the experiment with PC-3 prostate, in the experiment with NCI/ADR-RES ovarian, in the experiment with OVCAR-3 ovarian, in the experiment with HCT-116 colon and with ACHN renal was over 100 µM throughout.
Turning to `Cc1cccc(N2C(=O)/C(=C/C(Cl)=C/c3ccc([N+](=O)[O-])cc3)SC2=S)c1C`, the GI50 in the experiment on SK-MEL-2 melanoma was 3.85 µM; with PC-3 prostate it was 1.39 µM; in the experiment with NCI/ADR-RES ovarian, 2.97 µM; in the experiment on OVCAR-3 ovarian it was 1.83 µM; in the experiment on HCT-116 colon it was 1.33 µM; in the experiment on ACHN renal, 1.43 µM. Moreover, the TGI in the experiment on SK-MEL-2 melanoma is over 100 µM; in the experiment on PC-3 prostate, 4.93 µM; with NCI/ADR-RES ovarian it was over 100 µM; with OVCAR-3 ovarian, 3.87 µM; with HCT-116 colon, 3.08 µM; in the experiment with ACHN renal, 2.75 µM.
On to `COc1ccc(-c2nc3ccccc3s2)cc1OC`, for which the TGI with SK-MEL-2 melanoma, with PC-3 prostate, in the experiment with NCI/ADR-RES ovarian, in the experiment on HCT-116 colon and in the experiment on ACHN renal was over 100 µM each time.
`CCN(CC)C(=S)SSC(C)C`: the GI50 with SK-MEL-2 melanoma is 23.3 µM; with PC-3 prostate, 14.1 µM; in the experiment on NCI/ADR-RES ovarian, 16 µM; in the experiment with ACHN renal it was 17.2 µM. The total growth inhibition concentration (TGI) amounted to 62 µM in the experiment on SK-MEL-2 melanoma, 29.2 µM with PC-3 prostate, 35.7 µM in the experiment on NCI/ADR-RES ovarian and 33.3 µM in the experiment on ACHN renal.
For `O=C1c2cccc3cccc(c23)C(=O)N1CCCCCN1CCN(CCN=c2cc3n(-c4ccc(Cl)cc4)c4ccccc4nc-3cc2Nc2ccc(Cl)cc2)CC1`, the GI50 with PC-3 prostate is 6.36 µM; in the experiment with NCI/ADR-RES ovarian, 6.95 µM; in the experiment with OVCAR-3 ovarian, 1.07 µM; in the experiment on HCT-116 colon it was 7.79 µM; in the experiment on A498 renal, over 50 µM; with ACHN renal, 2.88 µM. Also, the TGI with PC-3 prostate was 28.4 µM; in the experiment with NCI/ADR-RES ovarian, 19.4 µM; with OVCAR-3 ovarian, 3.4 µM; with HCT-116 colon it was 17.5 µM; in the experiment on A498 renal, over 50 µM; in the experiment on ACHN renal, over 50 µM.
`OCC(O)C(O)C(O)C(/C=N\Nc1ncnc2c(Br)cc(Br)cc12)=N/Nc1ncnc2c(Br)cc(Br)cc12` (stereo unspecified): the concentration for total growth inhibition (TGI) in the experiment on SK-MEL-2 melanoma is 17.6 µM and > 100 µM; with PC-3 prostate, 13 µM and > 100 µM; in the experiment with OVCAR-3 ovarian it was 16.5 µM and > 100 µM; with HCT-116 colon, over 100 µM; in the experiment on A498 renal it was 38.8 µM and > 100 µM; in the experiment with ACHN renal it was 33 µM and > 100 µM. The GI50 in the experiment with HCT-116 colon was 19.1 µM and 3.44 µM; in the experiment with A498 renal, 22.5 µM and > 100 µM.
As to `O=C1/C(=C/c2ccccc2)Oc2cc(O)ccc21`, the TGI in the experiment on PC-3 prostate, in the experiment with NCI/ADR-RES ovarian, in the experiment on OVCAR-3 ovarian, with HCT-116 colon and with ACHN renal was over 100 µM in each case.
As for `Nc1cc2c3c(cccc3c1)C(=O)N(CCN1CCCC1)C2=O`, the GI50 was 4.96 µM in the experiment on SK-MEL-2 melanoma; 3.89 µM with PC-3 prostate; 3.62 µM in the experiment with NCI/ADR-RES ovarian; 5.26 µM in the experiment with OVCAR-3 ovarian; 2.73 µM with HCT-116 colon; 2.54 µM in the experiment on A498 renal. The TGI with SK-MEL-2 melanoma was 19.2 µM; with PC-3 prostate, over 66.6 µM; in the experiment on NCI/ADR-RES ovarian, over 51.4 µM; in the experiment on OVCAR-3 ovarian it was 29.3 µM; in the experiment with HCT-116 colon, over 35 µM; with A498 renal, 7.89 µM.
For the compound `CC1CCC2C(C)C(=O)OC2C2(C)C(=O)C=CC12` (stereo unspecified), the TGI in the experiment with SK-MEL-2 melanoma, with PC-3 prostate, with NCI/ADR-RES ovarian, in the experiment with OVCAR-3 ovarian, in the experiment on HCT-116 colon and in the experiment with ACHN renal was over 10 µM throughout.
As to `CSc1nc(Nc2cccc(NC(=O)CCl)c2)c(C#N)c(-c2cccc([N+](=O)[O-])c2)n1`, the GI50 in the experiment with SK-MEL-2 melanoma is 2.05 µM; with PC-3 prostate it was 1.61 µM; with NCI/ADR-RES ovarian it was 2.38 µM; in the experiment on OVCAR-3 ovarian it was 1.77 µM; in the experiment with A498 renal, 12.4 µM; with ACHN renal, 0.534 µM. For the same compound, the TGI was 5.22 µM with SK-MEL-2 melanoma; 3.73 µM with PC-3 prostate; 7.64 µM with NCI/ADR-RES ovarian; 3.24 µM in the experiment on OVCAR-3 ovarian; 37.6 µM in the experiment with A498 renal; 1.91 µM with ACHN renal.
As to `O=C(Nc1sc2c(c1C(=O)O)CCCC2)c1ccco1`, the GI50 was over 50 µM in the experiment on SK-MEL-2 melanoma; 45.9 µM with PC-3 prostate; over 50 µM in the experiment on OVCAR-3 ovarian; 31 µM in the experiment with HCT-116 colon; over 50 µM in the experiment on A498 renal; 14.1 µM in the experiment with ACHN renal. Also, the concentration for total growth inhibition (TGI) in the experiment with SK-MEL-2 melanoma, in the experiment with PC-3 prostate, in the experiment on OVCAR-3 ovarian, in the experiment on HCT-116 colon, with A498 renal and in the experiment with ACHN renal was over 50 µM throughout.
